In patent US11370773B1, “Inhibiting human integrin (alpha-4) (beta-7)” (Morphic Therapeutic, Inc., priority 2019, dated 2022) one finds IC50 data, which are given here for two compounds.

One assay deals with T1, integrin α4β7 (Homo sapiens, UniProt P13612+P26010).
T1 sequence (P13612 34-977 limits assumed): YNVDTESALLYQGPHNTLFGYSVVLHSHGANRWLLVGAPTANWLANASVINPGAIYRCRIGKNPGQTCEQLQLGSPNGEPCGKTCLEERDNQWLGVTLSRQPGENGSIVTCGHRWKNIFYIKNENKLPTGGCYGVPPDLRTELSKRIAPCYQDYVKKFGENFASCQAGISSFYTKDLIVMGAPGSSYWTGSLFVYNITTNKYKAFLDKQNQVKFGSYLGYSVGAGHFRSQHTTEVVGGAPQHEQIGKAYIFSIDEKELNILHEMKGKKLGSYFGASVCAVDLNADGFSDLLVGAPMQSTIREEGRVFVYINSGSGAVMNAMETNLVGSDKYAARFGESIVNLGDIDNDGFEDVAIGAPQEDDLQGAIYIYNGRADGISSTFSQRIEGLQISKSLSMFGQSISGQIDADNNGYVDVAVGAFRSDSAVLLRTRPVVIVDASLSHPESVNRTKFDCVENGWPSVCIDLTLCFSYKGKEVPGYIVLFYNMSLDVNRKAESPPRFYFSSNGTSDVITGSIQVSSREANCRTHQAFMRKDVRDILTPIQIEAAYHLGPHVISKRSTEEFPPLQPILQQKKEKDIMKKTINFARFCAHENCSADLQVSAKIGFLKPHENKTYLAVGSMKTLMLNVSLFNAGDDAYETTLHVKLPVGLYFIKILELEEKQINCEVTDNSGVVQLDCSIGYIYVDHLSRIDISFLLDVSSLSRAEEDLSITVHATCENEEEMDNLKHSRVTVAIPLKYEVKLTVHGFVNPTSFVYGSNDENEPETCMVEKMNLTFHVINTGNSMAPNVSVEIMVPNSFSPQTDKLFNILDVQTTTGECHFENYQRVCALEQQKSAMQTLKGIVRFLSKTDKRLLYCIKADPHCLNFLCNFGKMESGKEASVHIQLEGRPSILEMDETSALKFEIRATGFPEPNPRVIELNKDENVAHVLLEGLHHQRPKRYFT
T1 sequence (P26010 20-723 limits assumed): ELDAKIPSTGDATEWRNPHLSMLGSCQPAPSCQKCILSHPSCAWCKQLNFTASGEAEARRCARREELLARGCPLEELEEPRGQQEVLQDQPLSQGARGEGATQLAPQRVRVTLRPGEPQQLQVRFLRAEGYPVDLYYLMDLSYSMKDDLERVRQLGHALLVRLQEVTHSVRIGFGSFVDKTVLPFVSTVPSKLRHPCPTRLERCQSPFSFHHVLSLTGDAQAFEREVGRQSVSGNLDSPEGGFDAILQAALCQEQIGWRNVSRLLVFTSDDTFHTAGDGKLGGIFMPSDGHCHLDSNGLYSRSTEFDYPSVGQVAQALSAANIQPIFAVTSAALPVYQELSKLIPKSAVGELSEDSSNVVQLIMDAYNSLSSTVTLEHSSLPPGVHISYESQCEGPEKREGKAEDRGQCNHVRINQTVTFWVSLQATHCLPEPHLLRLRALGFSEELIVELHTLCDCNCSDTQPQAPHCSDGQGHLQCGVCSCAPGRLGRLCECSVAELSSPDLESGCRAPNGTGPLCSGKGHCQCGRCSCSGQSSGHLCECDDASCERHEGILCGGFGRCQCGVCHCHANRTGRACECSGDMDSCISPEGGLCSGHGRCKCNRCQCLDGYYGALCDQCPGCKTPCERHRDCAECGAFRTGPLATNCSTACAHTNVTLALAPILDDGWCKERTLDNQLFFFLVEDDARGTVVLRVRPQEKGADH
The experiment in a line: Fluorescence Polarization (FP) assay for α4β7 binding, competition with fluorescein-labeled peptide. The note with it: 6.5 nM integrin α4β7, 3 nM fluorescein-labeled peptide, 2 mM MnCl2; read-out: FP Assay (Example 5) IC50. The procedure: (§1) Three in vitro assays were used to examine the α4β7 mechanistic process used by cells: 1) ligand:receptor affinity, 2) the avidity of those interactions on a cell's surface, and 3) how those interactions fare under an imposing force. In Example 5, a Fluorescence Polarization (FP) assay is used to measure compound activity through binding competition with the fluorescein-labeled peptide. In Example 6, the potency of compounds against α4β7 is measured in the cell-based ligand binding assay (LBA), using RPMI 8866 cells incubated with the compound samples in competition with soluble MAdCAM-1 ligand. In Example 7, activity of compounds is evaluated in a cell adhesion assay that mechanistically tests what occurs in vivo when trafficking cells utilize α4β7 to adhere to MAdCAM-1 expressing HEVs of the gut during the extravasation process. In the cell adhesion assay of Example 7, a MAdCAM1-(Fc) is coated on plastic, and α4β7 expressing cells (RPMI-8866) are allowed to adhere to the coated surface in the presence of the test compounds. Next, the force of washing with buffer is applied to cells thereby testing the strength of that adhesion. Unattached cells are removed and the remaining adherent cells are quantified.
Fluorescence Polarization (FP) assays were used to measure compound activity through binding competition with the fluorescein-labeled peptide […]{Lys(FITC)}. In the assay, 6.5 nM of integrin α4β7 was incubated with the test compound in 2 mM manganese chloride, 0.1 mM calcium chloride, 20 mM HEPES buffer at pH 7.3, 150 mM sodium chloride, 0.01% Triton X-100, 2% DMSO, and 3 nM of the fluorescein-labeled peptide. Running the assays in 384-well plates, the integrin protein was pre-incubated with the test compounds for 15 minutes at 22° C. before the fluorescein-labeled peptide was added. After the fluorescein-labeled peptide was added, the assay was incubated at 22° C. for 1 hour and fluorescence polarization was measured. IC50 values were determined by non-linear regression, four-parameter curve fitting.
In general terms: Fluorescence polarisation rises when a labelled molecule tumbles more slowly, as on binding a larger partner.

The target in the next assay is T2, α4β7 (Homo sapiens, UniProt P13612+P26010).
T2 construct: α4β7 expressing cells (RPMI-8866); endogenous in cells; host or cells: RPMI 8866
T2 sequence (P13612 34-1032): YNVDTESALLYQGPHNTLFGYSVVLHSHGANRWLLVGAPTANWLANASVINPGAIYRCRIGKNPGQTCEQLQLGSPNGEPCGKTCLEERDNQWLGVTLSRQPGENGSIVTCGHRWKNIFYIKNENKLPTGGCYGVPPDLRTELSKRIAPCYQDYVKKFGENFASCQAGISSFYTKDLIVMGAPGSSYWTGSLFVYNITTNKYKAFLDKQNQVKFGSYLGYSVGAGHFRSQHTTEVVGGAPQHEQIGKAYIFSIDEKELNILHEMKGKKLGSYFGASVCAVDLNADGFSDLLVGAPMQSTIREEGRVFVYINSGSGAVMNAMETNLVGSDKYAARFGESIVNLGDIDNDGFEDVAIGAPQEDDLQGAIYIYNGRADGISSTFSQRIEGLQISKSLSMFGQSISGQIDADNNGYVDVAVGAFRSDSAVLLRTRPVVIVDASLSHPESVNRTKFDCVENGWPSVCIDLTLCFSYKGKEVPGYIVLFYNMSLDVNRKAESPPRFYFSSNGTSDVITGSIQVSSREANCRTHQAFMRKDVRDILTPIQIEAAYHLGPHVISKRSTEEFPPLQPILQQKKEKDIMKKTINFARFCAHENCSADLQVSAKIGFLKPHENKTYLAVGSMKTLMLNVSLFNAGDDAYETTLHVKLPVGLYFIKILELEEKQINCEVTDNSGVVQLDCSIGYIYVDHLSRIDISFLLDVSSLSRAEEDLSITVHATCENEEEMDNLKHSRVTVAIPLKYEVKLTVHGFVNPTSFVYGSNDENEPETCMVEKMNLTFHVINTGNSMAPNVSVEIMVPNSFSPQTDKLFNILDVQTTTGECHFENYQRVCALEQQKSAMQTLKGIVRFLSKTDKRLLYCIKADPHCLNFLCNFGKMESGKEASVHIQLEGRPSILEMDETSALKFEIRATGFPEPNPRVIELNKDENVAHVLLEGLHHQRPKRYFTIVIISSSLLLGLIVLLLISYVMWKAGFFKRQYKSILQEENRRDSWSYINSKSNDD
T2 sequence (P26010 20-798): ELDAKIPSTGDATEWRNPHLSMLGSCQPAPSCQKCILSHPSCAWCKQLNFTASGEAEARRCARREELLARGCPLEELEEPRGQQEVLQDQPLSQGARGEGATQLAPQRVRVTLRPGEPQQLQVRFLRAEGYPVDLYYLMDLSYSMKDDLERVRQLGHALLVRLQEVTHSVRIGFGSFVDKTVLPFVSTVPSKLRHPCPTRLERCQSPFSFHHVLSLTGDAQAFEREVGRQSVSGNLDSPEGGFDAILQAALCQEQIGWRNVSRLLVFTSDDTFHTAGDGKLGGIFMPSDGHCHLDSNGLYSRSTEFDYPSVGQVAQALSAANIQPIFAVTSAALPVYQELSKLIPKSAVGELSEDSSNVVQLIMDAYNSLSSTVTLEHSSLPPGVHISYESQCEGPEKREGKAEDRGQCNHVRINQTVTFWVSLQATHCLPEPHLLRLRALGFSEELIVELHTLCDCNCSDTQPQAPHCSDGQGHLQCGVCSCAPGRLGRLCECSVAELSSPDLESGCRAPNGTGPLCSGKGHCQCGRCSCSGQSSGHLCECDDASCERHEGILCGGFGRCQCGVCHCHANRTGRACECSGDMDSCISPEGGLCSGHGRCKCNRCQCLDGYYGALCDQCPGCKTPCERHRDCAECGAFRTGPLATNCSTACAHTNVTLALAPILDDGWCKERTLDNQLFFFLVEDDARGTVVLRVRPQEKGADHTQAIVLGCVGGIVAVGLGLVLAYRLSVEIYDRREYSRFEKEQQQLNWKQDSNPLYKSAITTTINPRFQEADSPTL
The assay can be described thus: Cell adhesion assay, RPMI8866 cells adhering to MAdCAM coated plates. The note with it: RPMI8866 cells on recombinant human MAdCAM coated plates; read-out: CA Assay (Example 7) IC50. Type of assay: cell-based. The procedure:
as §1
Example 7 describes a cell adhesion assay.
To each well of a 96 well plate, 100 ug of recombinant human MAdCAM in 100 ul PBS is added and incubated overnight at 4° C. After incubation MAdCAM is removed by aspiration and 200 ul of PBS+1% BSA is added to block the plate for 2 hours at 37° C. and 5% CO2. During this incubation dilution curves of compound are made in 100% DMSO in 96 well V bottom plates. 1.75 ul of diluted compounds are then transferred to a new 96 well U bottom plate containing 20 ul of assay media (phosphate free DMEM+25 mM HEPES+1% BSA). To this an additional 155 ul of assay media is added with mixing by pipetting up and down. This mixture is allowed to incubate for 15 minutes at 37° C. and 5% CO2. After incubation 175 ul of assay media containing 2e6/mL RPMI8866 cells is added to compound containing wells without mixing and plate is allowed to incubate for another 15 minutes at 37° C. and 5% CO2. During this incubation MAdCAM coated plates are removed from incubator and washed twice with 200 ul PBS+0.1% BSA. […] This plate is then incubated at 37° C. and 5% CO2 for 1 hour. After incubation plates are washed twice with 200 ul and once with 50 ul of phenol free RPMI+1% BSA. A final 50 ul of phenol free RPMI+1% BSA is added to wells after last wash. Next 50 ul of Promega cell titer glow is added to the wells. Plate is incubated on shaker for 2 minutes at 200 RPM followed by another 8 minutes off shaker before having the luminescence read on a Biotek Citation 5 plate reader. Raw data is converted to % inhibition compared to bottom of curve and analyzed using a 4-parameter non linear curve in Prism to determine IC50 and IC90.

Where only a bound is given, the exact number is not on record here.

Broadly, the IC50 is the concentration needed to halve the response being measured. On to `Cc1cc(C)c(-c2cc(C)c(F)c([C@H](CC(=O)O)NC(=O)C(CC(C)C)n3cc(CCN(C)C)c(C(F)(F)F)cc3=O)c2)c(C)c1` (single isomer, unassigned) [AC-P2], for which the IC50 at integrin α4β7 was not above 10 nM.
`Cc1cc(-c2c(C)cccc2C)cc([C@H](CC(=O)O)NC(=O)[C@H](CC(C)C)n2cc(CCN3CC[C@@H](F)C3)cc(F)c2=O)c1F` (single isomer, unassigned) [AU-P2]: the IC50 at α4β7 is less than 5 nM.
